Starred links: 1 amine or outer side, 2 acyl side, 3 side chain; linkers in the order of their positions; H or OH if unused. Non-standard residues stand in square brackets, D forms with d. Residues, ends and D or L forms follow the SMILES beside them. Groups on a side chain read outwards from the residue. *: point of attachment. C18 diacid = O=C(O)CCCCCCCCCCCCCCCCC(=O)*; γGlu = O=C(O)[C@H](CCC(=O)[*:2])N[*:1]; Ac4c = NC1(C(=O)O)CCC1; AEEA = NCCOCCOCC(=O)O; Aib = CC(C)(N)C(=O)O
Biological target: T1, human GLP-1 receptor (Homo sapiens, UniProt P43220)
T1 construct: expressed in transfected cells; host or cells: membranes of BHK cells (parent BHKTS13), clone FCW467-12A
Experiment: Assay (II)(a) GLP-1 receptor binding, 125I-GLP-1 displacement SPA on BHK membranes
Conditions: without presence of serum albumin; read-out: GLP-1R IC50 (nM) [Assay (II)(a)]
Method in brief: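 Membranes from BHK cells (clone FCW467-12A) stably expressing human GLP-1R were incubated with serially diluted compounds (8×10EE-13 to 8×10EE-7 M before addition) and [125I]-GLP-1-(7-36)NH2 with WGA SPA beads, 2 h at 30° C, pH 7.4. IC50 taken from displacement by non-linear regression. Run at ≤0.001% or 2.0% final serum albumin.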

T1 sequence (P43220 24-463): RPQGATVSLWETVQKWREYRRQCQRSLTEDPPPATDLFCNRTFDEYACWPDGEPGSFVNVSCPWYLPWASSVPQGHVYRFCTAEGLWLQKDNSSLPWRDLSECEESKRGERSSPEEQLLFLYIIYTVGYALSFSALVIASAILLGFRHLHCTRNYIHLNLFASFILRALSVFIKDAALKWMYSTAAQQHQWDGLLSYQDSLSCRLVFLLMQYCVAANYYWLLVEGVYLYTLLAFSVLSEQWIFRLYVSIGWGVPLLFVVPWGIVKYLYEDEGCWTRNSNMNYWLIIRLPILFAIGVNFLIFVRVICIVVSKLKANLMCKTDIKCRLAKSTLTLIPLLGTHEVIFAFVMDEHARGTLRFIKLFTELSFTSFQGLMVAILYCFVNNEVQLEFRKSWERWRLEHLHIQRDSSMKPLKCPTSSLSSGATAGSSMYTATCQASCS

Row | IC50 [nM] | SMILES
1 | 1.5 | CC[C@H](C)[C@H](NC(=O)[C@H](CC(C)C)NC(=O)[C@H](Cc1c[nH]c2ccccc12)NC(=O)[C@H](CCC(N)=O)NC(=O)[C@@H](NC(=O)[C@H](Cc1ccccc1)NC(=O)[C@H](CC(=O)O)NC(=O)[C@H](CCCNC(=N)N)NC(=O)[C@H](C)NC(=O)[C@H](CCCNC(=N)N)NC(=O)[C@H](CCCNC(=N)N)NC(=O)[C@H](CO)NC(=O)[C@H](CCC(=O)O)NC(=O)[C@H](CC(C)C)NC(=O)[C@H](Cc1ccc(O)cc1)NC(=O)[C@H](CCCNC(=N)N)NC(=O)[C@H](CO)NC(=O)[C@H](Cc1ccc(O)cc1)NC(=O)[C@H](CC(=O)O)NC(=O)[C@H](CO)NC(=O)[C@@H](NC(=O)[C@H](Cc1ccccc1)NC(=O)[C@@H](NC(=O)CNC(=O)[C@H](CCC(N)=O)NC(=O)C(C)(C)NC(=O)[C@@H](N)Cc1c[nH]cn1)[C@@H](C)O)[C@@H](C)O)C(C)C)C(=O)N[C@@H](CCCCNC(=O)CC[C@H](NC(=O)COCCOCCNC(=O)CC[C@H](NC(=O)COCCOCCNC(=O)CC[C@H](NC(=O)COCCOCCNC(=O)CC[C@H](NC(=O)CC[C@H](NC(=O)CCCCCCCCCCCCCCCCC(=O)O)C(=O)O)C(=O)O)C(=O)O)C(=O)O)C(=O)O)C(=O)N[C@H](C(N)=O)[C@@H](C)O [Chem. 37, N^28-[(4S)-4-carboxy-4-[[2-[2-[2-[[(4S)-4-carboxy-4-[[2-[2-[2-[[(4S)-4-carboxy-4-[[2-[2-[2-[[(4S)-4-carboxy-4-[[(4S)-4-carboxy-4-(17-carboxyheptadecanoylamino)butanoyl]amino]butanoyl]amino]ethoxy]ethoxy]acetyl]amino]butanoyl]amino]ethoxy]ethoxy]acetyl]amino]butanoyl]amino]ethoxy]ethoxy]acetyl]amino]butanoyl]-[Aib2,Arg12,Glu15,Arg20,Ile27,Lys28]-Glucagon amide] (H-H[Aib]QGTFTSDYSRYLESRRARDFVQWLIK([γGlu-AEEA-γGlu-AEEA-γGlu-AEEA-γGlu-γGlu-C18 diacid])T-NH2; N-terminus assumed)
2 | 0.3 | CC[C@H](C)[C@H](NC(=O)[C@H](CC(C)C)NC(=O)[C@H](Cc1c[nH]c2ccccc12)NC(=O)[C@H](CCC(N)=O)NC(=O)[C@@H](NC(=O)[C@H](Cc1ccccc1)NC(=O)[C@H](CCC(=O)O)NC(=O)[C@H](CCC(N)=O)NC(=O)[C@H](C)NC(=O)[C@H](CCCNC(=N)N)NC(=O)[C@H](CCCNC(=N)N)NC(=O)[C@H](CO)NC(=O)[C@H](CCC(=O)O)NC(=O)[C@H](CC(C)C)NC(=O)[C@H](Cc1ccc(O)cc1)NC(=O)[C@H](CCCCN)NC(=O)[C@H](CO)NC(=O)[C@H](CC(C)C)NC(=O)[C@H](CC(=O)O)NC(=O)[C@H](CO)NC(=O)[C@@H](NC(=O)[C@H](Cc1ccccc1)NC(=O)[C@@H](NC(=O)CNC(=O)[C@H](CCC(N)=O)NC(=O)C1(NC(=O)[C@@H](N)Cc2c[nH]cn2)CCC1)[C@@H](C)O)[C@@H](C)O)C(C)C)C(=O)N[C@@H](CCCCNC(=O)CC[C@H](NC(=O)COCCOCCNC(=O)COCCOCCNC(=O)CC[C@H](NC(=O)CC[C@H](NC(=O)CCCCCCCCCCCCCCCCC(=O)O)C(=O)O)C(=O)O)C(=O)O)C(=O)N[C@H](C(N)=O)[C@@H](C)O [Chem. 38, N^ε28-[(4S)-4-carboxy-4-[[2-[2-[2-[[2-[2-[2-[[(4S)-4-carboxy-4-[[(4S)-4-carboxy-4-(17-carboxyheptadecanoylamino)butanoyl]amino]butanoyl]amino]ethoxy]ethoxy]acetyl]amino]ethoxy]ethoxy]acetyl]amino]butanoyl]-[Acb2,Leu10,Glu15,Glu21,Ile27,Lys28]-Glucagon amide] (H-H[Ac4c]QGTFTSDLSKYLESRRAQEFVQWLIK([γGlu-AEEA-AEEA-γGlu-γGlu-C18 diacid])T-NH2; N-terminus assumed)

Source: US10570184B2, “GLP-1/glucagon receptor co-agonists for medical use” (Novo Nordisk A/S, priority 2014, dated 2020)
